Results on four molecules are retold here after publication PMC3157426 (PLoS ONE, 2011).

“Also recorded” adds a separate entry of the source. Read-outs that look alike come from different tables or passages of the source.

The term IC50 denotes the concentration needed to halve the response being measured.

Experiment [1] has as its target B/Perth/211/01 D197E mutant NA (Influenza B virus, UniProt Q3S340, D197E). In kind it is biochemical, influenza B virus B/Perth/211/01.
Experiment [2] addresses A/Mississippi/03/01 H1N1 H274Y mutant NA (Influenza A virus, UniProt Q289M4, H275Y). In kind it is biochemical, influenza virus A/Mississippi/03/01 H1N1.
In experiment [3] the target is A/Fukui/45/04 H3N2 E119V mutant NA (Influenza A virus, UniProt C0IZY2, E119V). In kind it is biochemical, influenza virus A/Fukui/45/04 H3N2.
The mark [4] stands for this setting: read-out: IC50 at 10 min, 30' Pre.
The mark [5] stands for this setting: read-out: IC50 at 10 min, No pre.
Setting [6] is: read-out: final IC50 after 60 min, 30' pre.
[7] abbreviates: read-out: final IC50 after 60 min, No pre.

Turning to `CC(=O)N[C@H]1[C@H]([C@H](O)[C@H](O)CO)OC(C(=O)O)=C[C@@H]1O` [DANA, 2-deoxy,2,3-dehydro N-acetyl neuraminic acid], the “binding phenotype (slow or fast binding)” value in experiment [1], in experiment [2] and in experiment [3] was “fast binding” each time. The “susceptibility compared to the wild type virus” value in experiment [1] is “Some reduced susceptibility”.
Turning to `CCC(CC)[C@H](NC(C)=O)[C@@H]1[C@H](O)[C@@H](C(=O)O)C[C@H]1N=C(N)N` [Peramivir, peramivir], the “10'/60 (ratio of IC50s), No pre” value is listed as 2.5 in experiment [1], 0.7 in experiment [2] and 7.2 in experiment [3]. Also, the entries for the “No pre/pre (ratio of 60 min IC50s)” value in experiment [1], in experiment [2] and in experiment [3] were 1.8, 1.3 and 10.2, respectively. Also, the “binding phenotype (slow or fast binding)” value in experiment [1] and in experiment [2] was “loss of slow binding” throughout. Moreover, the IC50 in experiment [1] (setting [4]) came to 0.0039 µM; in experiment [1] (setting [5]), 0.186 µM; in experiment [1] (setting [6]), 0.0415 µM; in experiment [1] (setting [7]), 0.0752 µM; in experiment [2] (setting [4]), 0.1 µM; in experiment [2] (setting [5]), 0.13 µM. Further, the IC50 in experiment [2] (setting [6]) is 0.153 µM; in experiment [2] (setting [7]), 0.196 µM; in experiment [3] (setting [4]) it was 0.0014 µM; in experiment [3] (setting [5]) it was 0.154 µM; in experiment [3] (setting [6]), 0.0021 µM; in experiment [3] (setting [7]), 0.0214 µM. The “60'/10 (ratio of IC50s), 30' Pre” value in experiment [2] and in experiment [3] was 1.5 in each case.
Turning to `CC(=O)N[C@H]1[C@H]([C@H](O)[C@H](O)CO)OC(C(=O)O)=C[C@@H]1N=C(N)N` [Zanamivir, zanamivir], the “binding phenotype (slow or fast binding)” value is reported as “no impact on the binding kinetics” in experiment [2] and “slow binding phenotype” in experiment [3].
oseltamivir carboxylate: the entries for the “binding phenotype (slow or fast binding)” value in experiment [2] and in experiment [3] were “loss of slow binding” and “fast binding; also recorded: loss of slow binding”, respectively. Besides, the IC50 in experiment [2] (setting [4]) worked out at 1.59 µM; in experiment [2] (setting [5]), 1.91 µM; in experiment [2] (setting [6]), 2.44 µM; in experiment [2] (setting [7]) it was 2.35 µM; in experiment [3] (setting [4]) it was 0.122 µM; in experiment [3] (setting [5]), 0.178 µM. In addition, the IC50 in experiment [3] (setting [6]) is 0.26 µM; in experiment [3] (setting [7]), 0.208 µM.
